“Also recorded” adds a separate entry of the source. Read-outs that look alike come from different tables or passages of the source.
Assays:
[1] = system: mouse spleen cells, antibody response to sheep red blood cells; conditions: morphine positive control; ref Rahim et al, 2001; cited from earlier work
mouse spleen cells [2] = conditions: 2 hrs pretreatment, same PFC assay; ref Eisenstein et al, 1995; cited from earlier work
human monocytes = conditions: 10^−6 M naloxone; ref Trombella et al, 2005; cited from earlier work
ORL-1 [3] = conditions: in vivo; ref Chen et al, 2001; cited from earlier work
ORL-1 [4] = conditions: in vitro; ref Knoflach et al, 1996; Reinscheid et al, 1995; cited from earlier work
[5] = system: C-1 A-APA (affinity-purified rabbit antiserum to N/OFQ); assay: Solid-phase RIA, displacement of; format: binding; conditions: for cross-reactivity in RIA: competitive peptide 1 × 10^−6 M to 1.5 × 10^−12 M
[6] = system: C-4 A-APA (affinity-purified rabbit antiserum to N/OFQ); assay: Solid-phase RIA, displacement of; format: binding; conditions: for cross-reactivity in RIA: competitive peptide 1 × 10^−6 M to 1.5 × 10^−12 M
C-4 A-APA = assay: Dot-blot cross-reactivity, C-4 A-APA; format: binding, rabbit; conditions: membrane-spotted peptides
C-1 A-APA = assay: Dot-blot cross-reactivity, C-1 A-APA; format: binding, rabbit; conditions: membrane-spotted peptides
mu opioid receptor = conditions: ref Mollereau et al, 1994; Pan et al, 1995; cited from earlier work
delta opioid receptor = conditions: ref Mollereau et al, 1994; Pan et al, 1995; cited from earlier work
[7] = system: mouse spleen cells, antibody response to sheep red blood cells; conditions: s.c. Alzet pump, 48 hr
[8] = system: Con A activated rat splenocytes; conditions: ref Miller and Fulford, 2007, cited from earlier work
astrocytes = conditions: peripheral administration of an inflammatory stimulus; ref Fu et al, 2007; cited from earlier work
[9] = system: human monocytes and monocyte-like cell lines (CCL2/MCP-1, CCL5/RANTES); conditions: CCL2/MCP-1 and CCL5/RANTES; ref Kaminsky and Rogers, 2008; cited from earlier work
human T cells = conditions: cited from earlier work
astrocyte cultures = conditions: lipopolysaccharide in vitro; ref Fu et al, 2007; cited from earlier work
mouse spleen cells [10] = assay: Primary in vitro plaque-forming cell; format: cell-based, mouse (C3HeB/FeJ); conditions: primary PFC assay
[11] = system: mouse spleen (TNF-α and IFN-γ mRNA); conditions: in vivo; cited from earlier work
kappa opioid receptor = conditions: ref Mollereau et al, 1994; Pan et al, 1995; cited from earlier work
ORL-1 receptor = conditions: cited from earlier work

## CN1CC[C@]23c4c5ccc(O)c4O[C@H]2[C@@H](O)C=C[C@H]3[C@H]1C5 [morphine]
[1]
  dose producing maximal immunosuppression: 0.5 mg/kg/day

## C=CCN1CC[C@]23c4c5ccc(O)c4O[C@H]2C(=O)CC[C@@]3(O)[C@H]1C5 [naloxone]
Mouse spleen cells [2]
  block of immunosuppressive effect of morphine and U50488: completely blocked the immunosuppressive effect of morphine and of the kappa agonist, U50488
Human monocytes
  effect of naloxone on chemotaxis induced by the peptide: did not block human monocyte chemotaxis
ORL-1 [3]
  naloxone sensitivity of ORL-1 activity: naloxone insensitive
ORL-1 [4]
  naloxone sensitivity of ORL-1 activity: naloxone insensitive

## BAM-18
[5]
  cross-reactivity in RIA: no significant cross-reactivity; also recorded: No significant cross-reactivities were detected
[6]
  cross-reactivity in RIA: did not show significant cross-reactivity; also recorded: No significant cross-reactivities were detected
C-4 A-APA
  dot-blot reactivity: not to classical opioid
C-1 A-APA
  dot-blot reactivity: not to classical opioid

## Dynorphin A1-17
[5]
  cross-reactivity in RIA: no significant cross-reactivity
[5]; listed as Dynorphin A1-17
  cross-reactivity in RIA: No significant cross-reactivities were detected
[6]
  cross-reactivity in RIA: did not show significant cross-reactivity
[6]; listed as Dynorphin A1-17
  cross-reactivity in RIA: No significant cross-reactivities were detected

## Tyr-Gly-Gly-Gly-Met [Met-enkephalin, Met-Enkephalin]
C-4 A-APA
  dot-blot reactivity: not to classical opioid
C-1 A-APA
  dot-blot reactivity: not to classical opioid

## Tyr-Gly-Gly-Phe-Leu [Leu-enkephalin, Leu-Enkephalin]
[5]
  cross-reactivity in RIA: no significant cross-reactivity
[5]; listed as Leu-Enkephalin
  cross-reactivity in RIA: No significant cross-reactivities were detected
[6]
  cross-reactivity in RIA: did not show significant cross-reactivity
[6]; listed as Leu-Enkephalin
  cross-reactivity in RIA: No significant cross-reactivities were detected
C-4 A-APA
  dot-blot reactivity: not to classical opioid
C-1 A-APA
  dot-blot reactivity: not to classical opioid

## nociceptin/orphanin FQ [N/OFQ]
Mu opioid receptor
  binding: does not bind
[5]; solid-phase RIA, C-1 A-APA
  IC80: 2.9 nM
[6]; read-out: smallest measurable displacement, IC20, solid-phase RIA, C-4 A-APA
  IC20: 0.062 nM
[6]; solid-phase RIA, C-4 A-APA
  IC80: 0.71 nM
Delta opioid receptor
  binding: does not bind
[7]
  dose of maximal immunosuppression: 0.05 mg/kg/day
[8]; Con A activated rat splenocytes
  inhibition of proliferation: inhibit the proliferation
[8]; in vitro
  inhibition of IL-2 production: inhibit the proliferation of Con A activated rat splenocytes, as well as the production of IL-2
astrocytes
  mRNA for TNF-α, IL-1β, and IL-6: decrease expression of mRNA
[9]
  chemokine production: suppress the production of chemokine proteins
Human T cells
  CD28 expression: up-regulated expression of the co-stimulatory molecule CD28
  CTLA-4 expression: upregulate CTLA-4
  PGE2 induction: induced PGE2
  proliferation: increased proliferation
Astrocyte cultures
  mRNA for TNF-α, IL-1β, and IL-6: decrease expression of mRNA
Mouse spleen cells [10]
  suppression of antibody formation: suppressed antibody formation to sheep red blood cells; also recorded: suppresses both the secondary and primary plaque-forming cell assay
C-4 A-APA
  dot-blot reactivity: showed reactivity to the three nociceptin peptides
[11]
  mRNA for TNF-α and IFN-γ in spleens: increased levels of mRNA
Kappa opioid receptor
  binding: does not bind
ORL-1 receptor
  forskolin-induced cAMP accumulation: inhibition of forskolin-induced cAMP accumulation
C-1 A-APA
  dot-blot reactivity: showed reactivity to the three nociceptin peptides

From PMC4007060 (Journal of neuroimmune pharmacology : the official journal …, 2010)
